Results: patent publication US12077555B2, “STAT degraders and uses thereof” (Kymera Therapeutics, Inc., priority 2019, dated 2024)

How the values were obtained:
[1] = tested on: STAT3-degrader-E3 ligase ternary complex; assay: AlphaLISA assays, ternary complex formation and STAT3 ubiquitination; format: biochemical; details: FIG. 2
STAT3 [2] = biological target: T1, STAT3 (Homo sapiens, UniProt P40763); assay: Fluorescence polarization assay, STAT3 binding; details: FIG. 1
E3 ligase = assay: Fluorescence polarization assay, E3 ligase binding; details: FIG. 1
STAT3 [3] = biological target: T1, STAT3; assay: Quantitation of STAT3 degradation in A549 cells by Western blot; format: cell-based; set-up: expressed in transfected cells; host or cells: A549; details: read-out: A549 DC50, 24 hours, tested up to 30 μM or 10 μM
How it was run: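 A549 cells treated 24 h at 37° C with compound at 30, 10, 3, 1, 0.3 μM or DMSO; RIPA lysates analysed by SDS-PAGE/Western blot for total STAT3, β-actin as loading control, LI-COR fluorescence read-out. DC50 derived by sigmoidal fit of dose-dependent degradation.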

ternary complex = assay: AlphaLISA assay of ternary complex formation (FIG. 2A); format: binding
STAT3 [4] = biological target: T1, STAT3; assay: STAT3 ubiquitination in A549 lysates (FIG. 2B); format: cell-based; set-up: expressed in transfected cells; host or cells: A549
STAT3 [5] = biological target: T1, STAT3; assay: STAT3 HiBiT degradation assay in transfected A549 cells; format: cell-based; set-up: expressed in transfected cells; host or cells: A549; details: A549, 24 h; read-out: STAT3 HiBiT A549 degradation 24 h: Average external-Abs DC50
How it was run: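 Degradation read as HiBiT-tagged STAT3 luminescence (Nano-Glo lytic reagent, 10 min, room temperature) following 24 h compound treatment of transfected A549 cells at 3-fold, 10 points. Percent remaining signal computed against controls and fitted with a four-parameter logistic; DC50 reported as letter bins (A <0.01 to D >1.0 µM).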

SU-DHL-1 tumor cells = assay: Xenograph tumor study, SU-DHL-1; format: in vivo, NOD SCID mice; details: SUDHL-1 xenograph, IV, 2.5-30 mg/kg, 2 days on/5 days off
Experimental: Animals: 50 6-8 week old female NOD SCID mice weighing 18 to 20 grams. 25 mice were used in each study.
Method for Tumor Inoculation: Each mouse was inoculated subcutaneously with SU-DHL-1 tumor cells (1×107+Matrigel) or SUP-M2 tumor cells (5×106+Matrigel) in 0.1 ml of RPMI1640 medium supplemented with 10% FBS, 100 U/ml penicillin and […] streptomycin for tumor development. Mice were then assigned to groups such that the mean tumor volume was the same for each treatment group and time point. […] Vehicle was 25% HP-β-CD in water adjusted to pH 7.4.
Measurement Parameters: Study animals were monitored not only for tumor growth but also behavior such as mobility, food and water consumption (by cage side checking only), body weight (BW), eye/hair matting and any other abnormal effect. Any mortality and/or abnormal clinical signs was recorded. Sponsor was notified immediately if abnormal clinical signs, or if tolerability issues were observed. Body weights of all animals were measured and recorded twice per week. The measurement of tumor size was conducted twice weekly with a caliper and recorded. The tumor volume (mm3) was estimated using the formula: TV=a×b2/2, where “a” and “b” are long and short diameters of a tumor, respectively.

T1 sequence (P40763 whole entry): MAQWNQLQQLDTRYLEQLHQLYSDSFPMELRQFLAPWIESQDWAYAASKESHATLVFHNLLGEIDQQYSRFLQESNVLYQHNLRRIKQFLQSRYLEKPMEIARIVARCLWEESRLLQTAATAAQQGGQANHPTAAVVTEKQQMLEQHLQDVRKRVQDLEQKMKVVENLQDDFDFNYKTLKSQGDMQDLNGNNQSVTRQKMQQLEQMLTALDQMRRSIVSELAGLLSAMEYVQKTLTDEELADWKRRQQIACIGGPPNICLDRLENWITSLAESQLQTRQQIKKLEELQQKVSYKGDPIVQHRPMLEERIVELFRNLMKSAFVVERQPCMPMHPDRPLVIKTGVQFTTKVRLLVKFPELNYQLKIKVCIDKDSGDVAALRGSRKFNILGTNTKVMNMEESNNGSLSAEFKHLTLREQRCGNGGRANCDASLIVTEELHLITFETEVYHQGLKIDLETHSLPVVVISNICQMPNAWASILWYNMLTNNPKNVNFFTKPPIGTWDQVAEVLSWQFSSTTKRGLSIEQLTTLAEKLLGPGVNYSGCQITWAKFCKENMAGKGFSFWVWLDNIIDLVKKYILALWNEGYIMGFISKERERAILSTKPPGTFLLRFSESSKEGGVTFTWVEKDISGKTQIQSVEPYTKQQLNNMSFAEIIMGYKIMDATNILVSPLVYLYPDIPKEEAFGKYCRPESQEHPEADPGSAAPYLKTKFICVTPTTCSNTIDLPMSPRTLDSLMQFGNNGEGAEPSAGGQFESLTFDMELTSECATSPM

Row | SMILES | STAT3 ubiquitination [1] | formation of the STAT3-degrader-E3 ligase ternary complex [1] | binding to STAT3 (STAT3 [2]) | binding to E3 ligase (E3 ligase) | DC50 (STAT3 [3]) | ternary complex formation (ternary complex) | STAT3 ubiquitination (STAT3 [4]) | DC50 (STAT3 [5]) | tumor volume, 5 days (SU-DHL-1 tumor cells; 5 days) | tumor volume, 10 days (SU-DHL-1 tumor cells; 10 days) | tumor volume, 15 days (SU-DHL-1 tumor cells; 15 days) | tumor volume, 20 days (SU-DHL-1 tumor cells; 20 days)
1 | C/C(=C\C(=O)N[C@H]1CCc2cccc3c2N(C1=O)[C@H](C(=O)N[C@@H](CCC(N)=O)[C@@H](C)OCc1ccc(CCCCC(=O)N[C@H](C(=O)N2C[C@H](O)C[C@H]2C(=O)NCc2ccc(-c4scnc4C)cc2)C(C)(C)C)cc1)C3)c1ccc(C(F)(F)P(=O)(O)O)cc1 [Compound I-1, [4-[(1E)-1-[[(2S,11S)-2-[[(3S,4R)-1-carbamoyl-4-[[4-(4-[[(2S)-1-[(2S,4R)-4-hydroxy-2-([[4-(4-methyl-1,3-thiazol-5-yl)phenyl]methyl]carbamoyl)pyrrolidin-1-yl]-3,3-dimethyl-1-oxobutan-2-yl]carbamoyl]butyl)phenyl]methoxy]pentan-3-yl]carbamoyl]-12-oxo-1-azatricyclo[6.4.1.0^[4,13]]trideca-4(13),5,7-trien-11-yl]carbamoyl]prop-1-en-2-yl]phenyl]difluoromethylphosphonic acid] | promotes | promotes the formation of the STAT3-degrader-E3 ligase ternary complex | binds | binds | < 30 µM | efficient ternary complex formation | STAT3 ubiquitination | – | – | – | – | –
2 | CC(=O)N1CC[C@H]2CC[C@@H](C(=O)N[C@@H](CCC(N)=O)COc3cc(C)cc(CCCCCC(=O)N[C@H](C(=O)N4C[C@H](O)C[C@H]4C(=O)N[C@@H](C)c4ccc(-c5scnc5C)cc4)C(C)(C)C)c3F)N2C(=O)[C@@H](NC(=O)c2cc3cc(C(=O)P(=O)(O)O)ccc3[nH]2)C1 [Compound I-262, 2-[[(5S,8S,10aR)-3-acetyl-8-[[(2S)-4-carbamoyl-1-[2-fluoro-3-(5-[[(2S)-1-[(2S,4R)-4-hydroxy-2-[[(1S)-1-[4-(4-methyl-1,3-thiazol-5-yl)phenyl]ethyl]carbamoyl]pyrrolidin-1-yl]-3,3-dimethyl-1-oxobutan-2-yl]carbamoyl]pentyl)-5-methylphenoxy]butan-2-yl]carbamoyl]-6-oxo-octahydropyrrolo[1,2-a][1,5]diazocin-5-yl]carbamoyl]-1H-indole-5-carbonylphosphonic acid] | – | – | – | – | – | – | – | < 0.01 µM | A (A<500 mm^3) | A (A<500 mm^3) | A (A<500 mm^3) | A (A<500 mm^3)
